The record followed here is patent publication US9120824B2, “Cyclic amine derivatives as EP4 receptor agonists” (ROTTAPHARM BIOTECH S.R.L., priority 2011, dated 2015).

For one test, the target named is T1, human EP4 receptor (Homo sapiens, UniProt P35408).
T1 construct: expressed in transfected cells; host or cells: HEK-293, stably transfected; membrane fraction
Kind of test: cAMP assay on human EP4 membrane of transfected cells (AlphaScreen). The format is biochemical. Particulars: human EP4 HEK293 cell membranes. The source says: (§1) Stable Expression of Human EP4 Receptors in the Human Embryonic Kidney (HEK293) Cell Line
(§2) The cDNA clone of human EP4 receptor (NM_000958.2) was obtained from Invitrogen™: Ultimate™ ORF Clone Collection-Clone ID IOH46525. The coding sequence was subcloned in expression vector pcDNATM6.2/V5-DEST by Gateway technology (Invitrogen™).
(§3) Human embryonic kidney cells (HEK-293) were stably transfected with expression vector for human EP4 receptor in according to the method described in FuGENE®6 Transfection Reagent's manual (Roche Applied Science®).
(§4) Preparation of Membrane Fraction:
(§5) The EP4 transfected cells were grown in Dulbecco's modified Eagle's medium containing 10% fetal bovine serum and 10 μg/ml Blasticidin S HCl (selection medium) at 37° C. in a humidified atmosphere of 5% CO2 in air.
(§6) For the membrane preparation, cells in flask were harvested by hypotonical/mechanical lysis with chilled (4° C.) TE buffer (5 mM TRIS, 5 mM etylenediamine tetra-acetic acid (EDTA), pH 7.4).
(§7) Cells were detached and lysed with 10 ml of hypotonic lysis buffer and by scraping. The cell lysate was vortexed for 30 sec and centrifuged at 40000×g at 4° C. for 22 min.
b) cAMP Assay on Human EP4 Membrane of Transfected Cells.
The assay is based on the competition between endogenous cAMP and exogenously added biotinylated cAMP. The capture of cAMP is achieved by using a specific antibody conjugated to […] beads.
Cell membranes prepared as described above, were resuspended in 1 ml stimulation buffer (HBSS 1×+BSA 0.1%+IBMX 0.5 mM+HEPES 5 mM+MgCl2 10 mM+GTP 1 nM+GDP 10 μM+ATP 100 μM-pH 7.4). Cell membranes were dispensed into white 384-well microplates at final concentration of 1 μg/well and used for the determination of cAMP with the alphascreen cAMP functional assay (EnVision-PerkinElmer). Cell membrane/anti-cAMP Acceptor beads mix (5 μl) and a mixture of analysed compounds (dissolved in 100% DMSO to a final maximal concentration of 0.01% DMSO)/PGE2 (5 μl) were incubated at room temperature (22-23° C.) for 30 min in the dark. The Biotinylated-cAMP and donor beads (15 μl) were dispensed into each well to start the competition reaction. After 1 h incubation RT (22-23° C.) in the dark the plate was read using EnVision platform to determine the cAMP level (excitation: 680 nm; emission:520,620 nm).
cAMP standard curve (concentration range from 1×10-6 to 1×10-11 M in log intervals) with a negative control (no cAMP)
a positive control:forskolin 10 μM
Antagonism studies were performed stimulating HEK293 cell membrane with PGE2 3 nM. The AlphaScreen signal is plotted as a function of log concentration of cAMP and EC50 is determined. EC50 value is calculated by […].
A general note: Cyclic AMP is a second messenger, typically raised through Gs and lowered through Gi signalling.

For test [1], the target named is T2, hEP4 receptors (human EP4/HEK293 transfectant) (Homo sapiens, UniProt P35408).
T2 construct: expressed in transfected cells; host or cells: HEK-293, stably transfected; membrane fraction
T2 sequence (P35408 whole entry): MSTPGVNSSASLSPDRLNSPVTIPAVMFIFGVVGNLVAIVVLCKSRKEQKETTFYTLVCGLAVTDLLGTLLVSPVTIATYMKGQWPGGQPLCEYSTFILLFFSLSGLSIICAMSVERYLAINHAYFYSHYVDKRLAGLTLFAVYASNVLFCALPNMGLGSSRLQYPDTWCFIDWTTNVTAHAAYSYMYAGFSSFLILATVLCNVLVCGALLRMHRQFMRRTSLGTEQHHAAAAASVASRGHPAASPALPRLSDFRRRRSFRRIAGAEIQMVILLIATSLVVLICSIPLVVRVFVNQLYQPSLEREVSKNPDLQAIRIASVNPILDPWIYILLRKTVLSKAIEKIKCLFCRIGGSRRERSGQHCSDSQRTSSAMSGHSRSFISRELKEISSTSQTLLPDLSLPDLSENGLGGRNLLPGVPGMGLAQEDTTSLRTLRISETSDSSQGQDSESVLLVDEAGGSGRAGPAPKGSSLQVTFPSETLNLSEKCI
Kind of test: [3H]-PGE2 membrane binding assay. Particulars: [3H]-PGE2 1 nM, human EP4/HEK293 membranes, compounds 1 nM to 1 μM; Ki by Cheng-Prusoff, pKi = -log10 Ki (M).
Source text: as §1, §2, §3, §4, §5, §6, §7
a) Membrane Binding Assay[3H]-Prostaglandin E2
The membrane pellet was resuspended in the same buffer (5 mM TRIS, 5 mM ethylenediamine tetra-acetic acid (EDTA), pH 7.4), and protein concentration was determined by Bradford method (Bio-Bad® assay).
This membrane preparation was stored at −80° C. freezer until use for binding assay.
([^3H]-PGE2) membranes binding assays toward hEP4 receptors (human EP4/HEK293 transfectant, see above) and hEP2 receptors (human EP2/HEK293 transfectant, purchased from PerkinElmer Inc) were performed in 10 mM MES-KOH buffer pH6, containing 10 mM MgCl2 and 1 mM CaCl2 for EP4 binding assay or 50 mM Tris-Cl, BSA 0.5% for EP2 binding assay (according to supplier indication).
Ten microgram of protein from membrane fractions were incubated in a total volume of 0.1 ml (EP4) or 0.2 ml (EP2) with 1 nM (EP4) or 3 nM (EP2) [^3H]-PGE2 (PerkinElmer Inc, 171 Ci/mmol). In both assays to determine the total binding or non specific binding, 1% DMSO or 1 μM prostaglandin E2 (EP4) or 100 μM (EP2) were added to reaction mixtures, respectively. Incubation was conducted in a polypropylene 96 multiwell for 90 min (EP4) or 60 min (EP2) at room temperature prior to separation of the bound and free radioligand by vacuum manifold rapid filtration on glass fiber filters (Unifilter GFB96, PerkinElmer Inc) pre-soaked in 0.3% polyethyleneimine. Filters were washed with ice cold buffer pH 7.4 (50 mM HEPES, NaCl 500 mM, BSA 0.1% for EP4 binding assay or 50 mM Tris-Cl for EP2 binding assays) and the residual [^3H]-PGE2 binding determined by solid scintillation counter (TopCount, PerkinElmer Inc).
The affinity (Ki) of each compound was calculated according to the Cheng-Prousoff equation: Ki=IC50/(1+([C]/Kd)). Results were expressed as pKi (−log 10 Ki (M)

T1 sequence (P35408 whole entry): as above

For orientation: EC50 means the concentration giving half of the maximal effect. Read a high EC50 as a need for much substance. As a reminder, the Ki is the dissociation constant of the complex between target and ligand, obtained from inhibition or displacement. As to `C[C@H](NC(=O)[C@H]1CCCCN1Cc1cccc(C(F)(F)F)c1)c1ccc(C(=O)O)cc1` [Example E5, lithium 4-((S)-1-((R)-1-(3-(trifluoromethyl)benzyl)piperidine-2-carboxamido)ethyl)benzoate], on human EP4 receptor, the EC50 came out at 1 nM. In test [1], the Ki is 3.16e-08 M.
On human EP4 receptor, `O=C(O)c1ccc(C2(NC(=O)[C@H]3CCCCN3Cc3cccc(C(F)(F)F)c3)CC2)cc1` [Example E9, lithium (R)-4-(1-(1-(3-(trifluoromethyl)benzyl)piperidine-2-carboxamido)cyclopropyl)benzoate] showed an EC50 of 2.9 nM. The Ki in test [1] was 7.94e-09 M.
Consider `Cc1cc(CN2CCCC[C@@H]2C(=O)NC2(c3ccc(C(=O)O)cc3)CC2)ccc1F` [Example E12, (R)-4-(1-(1-(4-fluoro-3-methylbenzyl)piperidine-2-carboxamido)cyclopropyl)benzoic acid], for which a half-maximal effect at human EP4 receptor (EC50) was put at 6 nM. Besides, the Ki in test [1] is 3.16e-08 M.
`O=C(O)c1ccc(C2(NC(=O)[C@H]3CCCCN3Cc3ccc(F)c(C(F)(F)F)c3)CC2)cc1` [Example E13, lithium (R)-4-(1-(1-(4-fluoro-3-(trifluoromethyl)benzyl)piperidine-2-carboxamido)cyclopropyl)benzoate]: the EC50 on human EP4 receptor came to 8 nM. The Ki in test [1] was 1e-08 M.
Taken in the same sequence, the figures for `C[C@H](NC(=O)[C@H]1CCCN1Cc1cccc(C(F)(F)F)c1)c1ccc(C(=O)O)cc1` [Example E15, lithium 4-((S)-1-((R)-1-(3-(trifluoromethyl)benzyl)pyrrolidine-2-carboxamido)ethyl)benzoate] were 13.5 nM and 2e-08 M.
Molecule `C[C@H](NC(=O)[C@H]1C[C@@H](O)CN1Cc1cccc(C(F)(F)F)c1)c1ccc(C(=O)O)cc1` [Example E19, lithium 4-((S)-1-((2R,4R)-4-hydroxy-1-(3-(trifluoromethyl)benzyl)pyrrolidine-2-carboxamido)ethyl)benzoate] had an EC50 at human EP4 receptor of 0.1 nM. The molecule further showed a Ki in test [1] of 3.98e-08 M.
